Test results taken from ChEMBL document CHEMBL3046270, “Bleaching herbicide norflurazon inhibits phytoene desaturase by competition with the cofactors” (J Agric Food Chem, 2001).
Activity calls are given as the source filed them.

Assays:
[1] = target: 15-cis-phytoene desaturase (Synechococcus elongatus (strain PCC 7942) (Anacystis nidulans R2)) (UniProt P26294); assay: Competitive inhibition of Synechococcus phytoene desaturase using NADP as cofactor and phytoene as substrate at 0.1 uM after 2 hr by double reciprocal plot analysis
Sequence of 15-cis-phytoene desaturase (Synechococcus elongatus (strain PCC 7942) (Anacystis nidulans R2)) (P26294 whole entry): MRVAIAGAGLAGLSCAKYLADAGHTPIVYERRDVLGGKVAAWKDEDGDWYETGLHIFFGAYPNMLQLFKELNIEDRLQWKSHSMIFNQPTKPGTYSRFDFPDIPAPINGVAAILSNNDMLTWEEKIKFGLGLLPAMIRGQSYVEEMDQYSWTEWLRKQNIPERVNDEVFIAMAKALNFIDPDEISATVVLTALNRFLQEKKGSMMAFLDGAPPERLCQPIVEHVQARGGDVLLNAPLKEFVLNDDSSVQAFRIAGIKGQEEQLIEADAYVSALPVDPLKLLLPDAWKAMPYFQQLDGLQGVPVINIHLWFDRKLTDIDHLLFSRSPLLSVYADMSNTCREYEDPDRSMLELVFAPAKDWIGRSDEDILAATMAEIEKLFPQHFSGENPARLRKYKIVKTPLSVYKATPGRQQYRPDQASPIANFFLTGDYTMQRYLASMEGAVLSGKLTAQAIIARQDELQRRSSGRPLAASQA

[2] = target: Phytoene desaturase (Gentiana lutea) (UniProt Q8W433); assay: Competitive inhibition of Gentiana lutea desaturase using decyl plastoquinone as cofactor and phytoene as substrate at 0.1 uM after 2 hr by double reciprocal plot analysis
Sequence of Phytoene desaturase (Gentiana lutea) (Q8W433 as listed by the source): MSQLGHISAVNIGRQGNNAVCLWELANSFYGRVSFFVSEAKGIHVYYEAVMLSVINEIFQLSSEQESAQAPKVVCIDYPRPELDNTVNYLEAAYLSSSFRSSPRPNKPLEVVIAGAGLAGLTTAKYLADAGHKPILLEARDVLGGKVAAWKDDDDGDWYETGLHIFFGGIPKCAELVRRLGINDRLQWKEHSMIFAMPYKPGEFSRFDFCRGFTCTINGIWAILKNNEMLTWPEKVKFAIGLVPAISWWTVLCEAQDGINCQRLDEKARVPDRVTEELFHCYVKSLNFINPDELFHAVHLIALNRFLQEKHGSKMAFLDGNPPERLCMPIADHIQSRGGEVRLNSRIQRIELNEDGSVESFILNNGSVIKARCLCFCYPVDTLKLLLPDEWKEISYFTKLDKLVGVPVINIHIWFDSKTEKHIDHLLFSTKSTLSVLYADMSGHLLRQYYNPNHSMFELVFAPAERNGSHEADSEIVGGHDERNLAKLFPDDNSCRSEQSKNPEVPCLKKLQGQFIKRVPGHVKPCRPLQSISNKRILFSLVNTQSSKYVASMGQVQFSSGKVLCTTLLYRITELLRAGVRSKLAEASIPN

[3] = target: 15-cis-phytoene desaturase (Synechococcus elongatus (strain PCC 7942) (Anacystis nidulans R2)) (UniProt P26294); assay: Competitive inhibition of Synechococcus phytoene desaturase using decyl plastoquinone as cofactor and phytoene as substrate at 0.1 uM after 2 hr by double reciprocal plot analysis

Measured: inhibition

CNc1cnn(-c2cccc(C(F)(F)F)c2)c(=O)c1Cl
active: all assays above
